Source: publication PMC9962305, “A Highly Expressed Antennae Odorant-Binding Protein Involved in Recognition of Herbivore-Induced Plant Volatiles in Dastarcus helophoroides” (International Journal of Molecular Sciences, 2023)
“Also recorded” adds a separate entry of the source. Where two headings read alike, the source gives them in different places.

Legend:
[1] = target: recombinant DhelOBP4 (Dastarcus helophoroides, UniProt A0A1I9HZP6); experiment: Fluorescence competitive binding assay (1-NPN probe); conditions: for IC50: read-out: IC50, ligand concentration displacing 50% of the fluorescence intensity of the DhelOBPs/1-NPN complex; for Ki: calculated from IC50, read-out: Ki, dissociation constant
Protocol: (§1) Purified proteins were dissolved in 30 mM Tris-HCl buffer (pH 7.4 and 5.0), and emission fluorescence spectra were recorded on an RF-5301PC fluorescence spectrophotometer (Shimadzu, Kyoto, Japan) at room temperature in a right-angle configuration with a 1-cm light path quartz cuvette. To measure the affinity of the fluorescent probe 1-NPN with the target proteins, a […] solution of protein in 30 mM Tris-HCL (pH 7.4 and 5.0) was titrated with aliquots of 1 mM 1-NPN to final concentrations ranging from 0 to the approaching saturation. The probe 1-NPN was excited at 337 nm, and the emission spectra were recorded between 350 and 500 nm. The binding affinities of other ligands were measured using 1-NPN (2 μM) as the fluorescent probe with a stoichiometry of 1:1 (protein: probe), with the final concentration of each ligand ranging from 0 to 20 μM. All ligands, including 1-NPN were purchased from Sigma-Aldrich (St Louis, MO, USA) and TCI Shanghai (Shanghai, China) and dissolved in chromatogram class methanol (Aladdin, Shanghai, China).
(§2) The dissociation constants (Kd) of DhelOBPs with 1-NPN were calculated from Scatchard plots of the binding data using PRISM 8.0 software (GraphPad, La Jolla, CA, USA). Binding affinities (Ki) of DhelOBPs for each ligand were calculated based on the IC50 value (the initial fluorescence level of the competitor concentration reduced by half) using the equation: Ki=IC50/(1+1-NPN/K1-NPN) , where [1-NPN] is the free concentration of 1-NPN, and K1-NPN is the dissociation constant of the complex OBP/1-NPN. The analysis supposes that there is only one protein binding site, which is 100% active, and that the binding is reversible and at an equilibrium.

[2] = target: recombinant DhelOBP14 (Dastarcus helophoroides, UniProt A0A1I9HZQ7); experiment: as above; conditions: DhelOBP14, pH 7.4; for IC50: read-out: IC50, ligand concentration displacing 50% of the fluorescence intensity of the DhelOBPs/1-NPN complex
Protocol: as §1, §2

[3] = target: recombinant DhelOBP6 (Dastarcus helophoroides, UniProt A0A1I9HZP3); experiment: as above; conditions: DhelOBP6, pH 7.4; Scatchard plot; read-out: dissociation constant (Kd) bound to 1-NPN
Protocol: as §1, §2

[4] = target: recombinant DhelOBP20 (Dastarcus helophoroides, UniProt A0A1I9HZP8); experiment: as above; conditions: DhelOBP20, pH 7.4; for IC50: read-out: IC50, ligand concentration displacing 50% of the fluorescence intensity of the DhelOBPs/1-NPN complex
Protocol: as §1, §2

[5] = target: recombinant DhelOBP5 (Dastarcus helophoroides, UniProt A0A1I9HZP1); experiment: as above; conditions: DhelOBP5, pH 7.4; for IC50: read-out: IC50, ligand concentration displacing 50% of the fluorescence intensity of the DhelOBPs/1-NPN complex
Protocol: as §1, §2

[6] = target: recombinant DhelOBP18 (Dastarcus helophoroides, UniProt A0A1I9HZQ8); experiment: as above; conditions: DhelOBP18, pH 7.4; for IC50: read-out: IC50, ligand concentration displacing 50% of the fluorescence intensity of the DhelOBPs/1-NPN complex
Protocol: as §1, §2

[7] = test system: D. helophoroides adults injected with dsGFP or dsDhelOBP4; experiment: RNAi-mediated Y-tube olfactometer bioassay; type: in vivo, Dastarcus helophoroides
Protocol: (§3) Y-tube olfactometer experiments were conducted to evaluate the behavioral response to HIPVs with the best binding affinities in darkness at approximately 25 ± 1 °C. The central tube was 15 cm long, and the two branching arms, each linked to one vial, were 12 cm long with a 75° angle between them. Twenty microliters of each chemical that had been diluted 1000 times by volume were added to a 1 × 1 cm filter paper in one of the vials, and 20 μL of liquid paraffin were dropped on the same size filter paper in the second vial as the blank control. An effective choice was recorded when adults crawled at least 5 cm into the arm within 1 min and stayed 30 s at least. After every five individuals, the two arms were exchanged to avoid position effects. After testing 10 individuals, the Y-tube olfactometer was cleaned with absolute ethanol and oven-dried at 150 °C for 2 h. Fifty adult D. helophoroides were analyzed in each treated group. The results were analyzed using the chi-square test. 50 male and 50 female adults of D. helophoroides were chosen on day 1–4 after eclosion. The two treated groups were: dsGFP-injected and dsRNA-injected. dsGFP (250 ng) or dsRNA (250 ng) was respectively injected into the thorax internode of the adults with a microinjector (World Precision Instruments Inc., Sarasota, FL, USA) under a microscope. The RNAi efficiency was detected using a qRT-PCR for seven consecutive days. Following behavioral response was evaluated using the Y-tube olfactometer.

[8] = test system: D. helophoroides adults; experiment: Y-tube olfactometer bioassay; type: in vivo, Dastarcus helophoroides; conditions: female and male adults, 20 μL of chemical diluted 1000 times vs liquid paraffin, chi-square test
Protocol: as §3, with “test.” for “test. 50 male and 50 female adults of D. helophoroides were chosen on day 1–4 after eclosion. The two treated groups were: dsGFP-injected and dsRNA-injected. dsGFP (250 ng) or dsRNA (250 ng) was respectively injected into the thorax internode of the adults with a microinjector (World Precision Instruments Inc., Sarasota, FL, USA) under a microscope. The RNAi efficiency was detected using a qRT-PCR for seven consecutive days. Following behavioral response was evaluated using the Y-tube olfactometer.”

[9] = Scatchard plot, read-out: dissociation constant (Kd) bound to 1-NPN
[10] = female adults after injection of dsDhelOBP4
[11] = female and male adults after injection of dsGFP
[12] = male adults after injection of dsDhelOBP4

recombinant DhelOBP5, sequence (A0A1I9HZP1 entry or part of it): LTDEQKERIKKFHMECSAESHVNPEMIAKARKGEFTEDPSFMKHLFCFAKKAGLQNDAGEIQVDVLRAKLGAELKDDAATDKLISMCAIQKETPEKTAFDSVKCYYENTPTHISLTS
recombinant DhelOBP20, sequence (A0A1I9HZP8 entry or part of it): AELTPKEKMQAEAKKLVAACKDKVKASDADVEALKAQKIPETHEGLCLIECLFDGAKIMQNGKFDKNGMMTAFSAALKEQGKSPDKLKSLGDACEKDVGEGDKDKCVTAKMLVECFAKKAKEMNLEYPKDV
recombinant DhelOBP4, sequence (A0A1I9HZP6 entry or part of it): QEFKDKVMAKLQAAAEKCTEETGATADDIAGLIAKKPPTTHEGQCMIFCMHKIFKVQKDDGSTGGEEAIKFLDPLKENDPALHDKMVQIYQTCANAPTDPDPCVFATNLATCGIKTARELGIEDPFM
recombinant DhelOBP14, sequence (A0A1I9HZQ7 entry or part of it): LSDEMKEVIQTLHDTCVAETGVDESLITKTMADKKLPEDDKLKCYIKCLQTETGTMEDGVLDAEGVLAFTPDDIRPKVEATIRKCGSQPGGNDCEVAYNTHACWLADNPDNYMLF
recombinant DhelOBP18, sequence (A0A1I9HZQ8 entry or part of it): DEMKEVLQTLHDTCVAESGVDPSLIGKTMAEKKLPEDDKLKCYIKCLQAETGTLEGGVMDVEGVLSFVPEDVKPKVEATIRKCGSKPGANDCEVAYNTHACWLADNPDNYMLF
recombinant DhelOBP6, sequence (A0A1I9HZP3 entry or part of it): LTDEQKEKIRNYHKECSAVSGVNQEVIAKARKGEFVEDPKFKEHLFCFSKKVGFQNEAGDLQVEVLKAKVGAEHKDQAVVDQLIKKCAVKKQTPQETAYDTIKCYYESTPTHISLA

c1ccc(Nc2cccc3ccccc23)cc1 [1-NPN, N-phenyl-1-naphthylamine, reference compound]
Kd ([1]; DhelOBP4, pH 7.4, Scatchard plot, read-out: dissociation constant (Kd) bound to 1-NPN): 22.4 µM
Kd [2, 9]: 17.4 µM
Kd [3]: 120 µM
Kd [4, 9]: 5.13 µM
Kd [5, 9]: 41 µM
Kd [6, 9]: 1.23 µM

CC1=CC(=O)[C@H]2C[C@@H]1C2(C)C [(-)-Verbenone]
IC50 ([1]; DhelOBP4, pH 5.0): > 50 µM
IC50 ([1]; DhelOBP4, pH 7.4): > 20 µM
IC50 [2]: > 50 µM
IC50 [4]: > 50 µM
IC50 [5]: > 50 µM
IC50 [6]: > 50 µM

CC12CCC(CC1=O)C2(C)C (stereo not shown) [Camphor]
IC50 ([1]; DhelOBP4, pH 5.0): > 50 µM
Ki ([1]; DhelOBP4, pH 7.4): 16.6 ± 2.2 µM
IC50 ([1]; DhelOBP4, pH 7.4): 18 ± 2.4 µM
IC50 [2]: > 50 µM
IC50 [4]: > 50 µM
IC50 [5]: > 50 µM
IC50 [6]: > 50 µM

CC12CCC(C1)C(C)(C)C2=O (stereo not shown) [Fenchone]
IC50 ([1]; DhelOBP4, pH 5.0): > 20 µM
IC50 ([1]; DhelOBP4, pH 7.4): > 20 µM
IC50 [2]: > 50 µM
IC50 [4]: > 50 µM
IC50 [5]: > 50 µM
IC50 [6]: > 50 µM

CC1=CCC(O)(C(C)C)CC1 (stereo not shown) [Terpinen-4-ol]
IC50 ([1]; DhelOBP4, pH 5.0): > 50 µM
IC50 ([1]; DhelOBP4, pH 7.4): > 20 µM
IC50 [2]: > 50 µM
IC50 [4]: > 50 µM
IC50 [5]: > 50 µM
IC50 [6]: > 50 µM

CC1=CCC(=C(C)C)CC1 [Terpinolene]
IC50 ([1]; DhelOBP4, pH 5.0): > 50 µM
Ki ([1]; DhelOBP4, pH 7.4): 14.5 ± 1.7 µM
IC50 ([1]; DhelOBP4, pH 7.4): 15.7 ± 1.8 µM
IC50 [2]: > 50 µM
IC50 [4]: > 50 µM
IC50 [5]: > 50 µM
IC50 [6]: > 50 µM

Cc1ccc(C(C)C)cc1 [p-Cymene]
Behavioral response of D. helophoroides post-RNAi treatment [7, 10]: significantly avoidant effects; also recorded: significant repellent response
Behavioral response of D. helophoroides post-RNAi treatment [7, 11]: identically attractive effects
Behavioral response of D. helophoroides post-RNAi treatment [7, 12]: no behavioral effects; also recorded: did not elicit a behavioral response
IC50 ([1]; DhelOBP4, pH 5.0): > 50 µM
Ki ([1]; DhelOBP4, pH 7.4): 12 ± 0.9 µM
IC50 ([1]; DhelOBP4, pH 7.4): 13 ± 0.9 µM
IC50 [2]: > 50 µM
IC50 [4]: > 50 µM
IC50 [5]: > 50 µM
IC50 [6]: > 50 µM
Behavioral response of D. helophoroides [8]: significantly attracted; also recorded: attractive effects

CC1=CC[C@@H](C(C)(C)O)CC1 [α-Terpineol]
IC50 ([1]; DhelOBP4, pH 5.0): > 50 µM
Ki ([1]; DhelOBP4, pH 7.4): 9.6 ± 0.1 µM
IC50 ([1]; DhelOBP4, pH 7.4): 10.4 ± 0.1 µM
IC50 [2]: > 50 µM
IC50 [4]: > 50 µM
IC50 [5]: > 50 µM
IC50 [6]: > 50 µM
Behavioral response of D. helophoroides [8]: no behavioral effects
Behavioral response of D. helophoroides ([8]; listed as α-terpineol): did not elicit a behavioral response

CC1=CCC(C(C)C)=CC1 [γ-Terpinene]
Behavioral response of D. helophoroides post-RNAi treatment [7, 10]: significantly avoidant effects; also recorded: significant repellent response
Behavioral response of D. helophoroides post-RNAi treatment [7, 11]: identically attractive effects
Behavioral response of D. helophoroides post-RNAi treatment [7, 12]: no behavioral effects; also recorded: did not elicit a behavioral response
IC50 ([1]; DhelOBP4, pH 5.0): > 50 µM
Ki ([1]; DhelOBP4, pH 7.4): 10.1 ± 0.3 µM
IC50 ([1]; DhelOBP4, pH 7.4): 11 ± 0.3 µM
IC50 [2]: > 50 µM
IC50 [4]: > 50 µM
IC50 [5]: > 50 µM
IC50 [6]: > 50 µM
Behavioral response of D. helophoroides [8]: attractive effects
Behavioral response of D. helophoroides ([8]; listed as γ-terpinene): significantly attracted
